Among the data in patent US20230183243A1, “HETEROARYL DERIVATIVES AND PHARMACEUTICAL COMPOSITION COMPRISING SAME AS ACTIVE INGREDIENT” (VORONOI INC., priority 2019, published 2023) are IC50 and GI50 values, retold here.

In one assay the target is T1, TTK (Homo sapiens, UniProt P33981).
T1 sequence (P33981 1-857): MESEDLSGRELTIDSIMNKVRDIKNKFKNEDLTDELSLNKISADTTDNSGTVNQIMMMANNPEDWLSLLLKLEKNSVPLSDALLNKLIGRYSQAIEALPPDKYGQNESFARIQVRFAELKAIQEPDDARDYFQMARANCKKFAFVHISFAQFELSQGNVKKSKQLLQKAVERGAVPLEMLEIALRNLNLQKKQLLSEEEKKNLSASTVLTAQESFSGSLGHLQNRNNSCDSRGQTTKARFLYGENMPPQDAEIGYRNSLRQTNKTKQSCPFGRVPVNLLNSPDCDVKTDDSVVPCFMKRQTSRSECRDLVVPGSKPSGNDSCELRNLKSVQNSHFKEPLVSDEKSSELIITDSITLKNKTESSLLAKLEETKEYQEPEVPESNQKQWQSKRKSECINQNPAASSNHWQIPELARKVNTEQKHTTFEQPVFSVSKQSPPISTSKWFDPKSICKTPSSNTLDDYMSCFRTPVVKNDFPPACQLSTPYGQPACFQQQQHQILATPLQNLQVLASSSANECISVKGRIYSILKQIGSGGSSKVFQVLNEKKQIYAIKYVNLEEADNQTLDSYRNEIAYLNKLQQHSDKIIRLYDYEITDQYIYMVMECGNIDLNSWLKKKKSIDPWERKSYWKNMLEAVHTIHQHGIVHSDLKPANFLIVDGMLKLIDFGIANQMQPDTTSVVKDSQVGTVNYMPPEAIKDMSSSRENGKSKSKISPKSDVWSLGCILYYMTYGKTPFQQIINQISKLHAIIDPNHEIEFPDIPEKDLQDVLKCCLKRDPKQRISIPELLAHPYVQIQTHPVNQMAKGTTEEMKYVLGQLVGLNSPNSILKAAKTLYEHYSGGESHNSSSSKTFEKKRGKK
As to the kind of experiment: TTK enzyme activity, ADP-Glo kinase assay. The assay is classed as biochemical. Details: purchased SignalChem T20-10G. Particulars: purified human TTK, ATP 10 μM, 25° C., 2 hours. On the procedure: To evaluate an inhibitory activity of the compound according to the present invention against TTK (MPS1), an experiment was performed as follows.
Each of the Example compounds was reacted with a purified human TTK (SignalChem #T20-10G) enzyme to evaluate an ability to inhibit an enzyme using a method as described below. A composition of 40 mM Tris-HCl (pH 7.4), 20 mM MgCl2, 0.5 mg/mL BSA, and 50 μM DTT was used as a reaction buffer, and all reactions of test substances were performed in the reaction buffer. […] In the test, purified ATP (10 μM) and an enzyme substrate (0.2 μg) were reacted with a human TTK (25 ng) enzyme at 25° C. for 2 hours, and the enzyme activity was determined using an in vitro ADP-Glo™ kinase assay (Promega). […] The degree of inhibition of the enzyme activity according to the treatment concentration of each of the compounds was calculated based on the fluorescence of the enzyme activity of the solvent control which was not treated with the compound.
A general note: In ADP-Glo the light output rises with the ADP produced.

The test system of a further assay is MDA-MB-231 cells. The assay can be described thus: Inhibition of proliferation of triple-negative breast cancer cells, CellTiter-Glo. The assay is classed as cell-based. The settings on record: Homo sapiens, 120 h; MDA-MB-231, cultured for 5 days. On the procedure: Specifically, the following test was performed in order to evaluate the inhibitory activity of the compound according to the present invention against the cell proliferation in triple-negative breast cancer cells (TNBCs).
Cells were seeded in 180 μL of a culture broth at a density of 2,000 to 3,000 cells/well in a white clear bottom 96-well plate (Corning) according to the growth ability of each cell, and then cultured for 24 hours under conditions of 5% CO2 and 37° C. Thereafter, the compound was prepared by diluting a 10 mM stock solution three-fold with 100% DMSO at a total of 12 concentrations so that a peak concentration of the compound was in a range of 10 mM to 0.05 μM, and the diluted compound was then diluted in each cell culture medium so that a final concentration of the compound was in a range of 100 μM to 0.5 nM. 20 μL of a diluted solution diluted with a medium was added to the cell solution in which cells were seeded in the 96-well plate on the previous day so that a final concentration of the diluted solution was in a range of 10 μM to 0.05 nM. Each of the cells was cultured for 5 days. To check cell viability, a mixture provided in a CellTiter-Glo® Luminescent Cell Viability Assay Kit (Promega) was added to each of the cultured cell media, and cultured for another 10 minutes under a condition of 37° C. Then, a degree of luminescence (fluorescence) was measured. A degree of inhibition of the cell growth according to the treatment concentration of each of the compounds was calculated based on the fluorescence of the solvent control cells which were not treated with the compound.
A general note: In ATP-based viability assays light output follows the ATP content of the culture.

By IC50 is commonly meant the concentration that gives 50% inhibition. Read a low IC50 as higher potency. For orientation: GI50 means the concentration that inhibits growth by half. A high value points to lower sensitivity of the cells. At TTK, `COc1cc(-c2c(C)noc2C)ccc1Nc1nc(NC2CCCCC2)c2c(C#N)c[nH]c2n1` [Example 18, 4-(cyclohexylamino)-2-((4-(3,5-dimethylisoxazol-4-yl)-2-methoxyphenyl)amino)-7H-pyrrolo[2,3-d] pyrimidine-5-carbonitrile] registered a concentration for half-maximal inhibition (IC50) of less than 50 nM. Also, the GI50 in the assay on MDA-MB-231 cells is less than 100 nM.

For the compound `CCOc1cc(-c2nncn2C)ccc1Nc1nc(C2CC2)c2c(C#N)c[nH]c2n1` [Example 46, 4-cyclopropyl-2-((2-ethoxy-4-(4-methyl-4H-1,2,4-triazol-3-yl)phenyl)amino)-7H-pyrrolo[2,3-d] pyrimidine-5-carbonitrile], the 50% inhibitory concentration (IC50) at TTK fell in the range of 200 to 1000 nM. In the assay on MDA-MB-231 cells, this compound registered a 50% growth inhibitory concentration (GI50) of more than 1000 nM.

In turn, `COc1cc(N2CCCC2=O)ccc1Nc1nc(O[C@H]2CC[C@@](C)(O)CC2)c2c(C#N)c[nH]c2n1` [Example 32, 4-(((1s,4s)-4-hydroxy-4-methylcyclohexyl)oxy)-2-((2-methoxy-4-(2-oxopyrrolidin-1-yl)phenyl)amino)-7H-pyrrolo[2,3-d] pyrimidine-5-carbonitrile 2,2,2-trifluoroacetate] came in with an IC50 against TTK of less than 50 nM. This compound had a concentration for 50% growth inhibition (GI50) in the assay on MDA-MB-231 cells of less than 100 nM.

As to `CC(=O)N1CCN(Cc2ccc(-c3ccc(Nc4nc(NC5CCCCC5)c5c(C#N)c[nH]c5n4)cc3)cc2)CC1` [Example 21], the IC50 on TTK is 50 to 200 nM. In addition, the 50% growth inhibitory concentration (GI50) with MDA-MB-231 cells fell in the range of 100 to 1000 nM.

The compound `COc1cc(-c2ccc(F)nc2)ccc1Nc1nc(NC2CCCCC2)c2c(C#N)c[nH]c2n1` [Example 24, 4-(cyclohexylamino)-2-((4-(6-fluoropyridin-3-yl)-2-methoxyphenyl)amino)-7H-pyrrolo[2,3-d] pyrimidine-5-carbonitrile] showed an IC50 at TTK of less than 50 nM. Also, the GI50 with MDA-MB-231 cells is less than 100 nM.

Turning to `COc1cc(-c2ccc(CN3CCN(C(C)=O)CC3)cc2)ccc1Nc1nc(NC2CCCCC2)c2c(C#N)c[nH]c2n1` [Example 23, 2-((4′-((4-acetylpiperazin-1-yl)methyl)-3-methoxy-[1,1′-biphenyl]-4-yl)amino)-4-(cyclohexylamino)-7H-pyrrolo[2,3-d] pyrimidine-5-carbonitrile], the concentration for half-maximal inhibition (IC50) against TTK fell in the range of 50 to 200 nM. The compound also came in with a GI50 in the assay with MDA-MB-231 cells of less than 100 nM.

Regarding `COc1cc(-c2ncn(C)n2)ccc1Nc1nc(NC2CCCCC2)c2c(C#N)c[nH]c2n1` [Example 27, 4-(cyclohexylamino)-2-((2-methoxy-4-(1-methyl-1H-1,2,4-triazol-3-yl)phenyl)amino)-7H-pyrrolo[2,3-d] pyrimidine-5-carbonitrile], on TTK, the IC50 is less than 50 nM. In the assay on MDA-MB-231 cells, this compound displayed a 50% growth inhibitory concentration (GI50) of less than 100 nM.

As for `C[C@@H](Oc1cc(C(=O)N(C)C)ccc1Nc1nc(O[C@H]2CC[C@@](C)(O)CC2)c2c(Cl)c[nH]c2n1)C(F)(F)F` [Example 86, 4-((5-chloro-4-(((1s,4S)-4-hydroxy-4-methylcyclohexyl)oxy)-7H-pyrrolo[2,3-d]pyrimidin-2-yl)amino)-N,N-dimethyl-3-(((R)-1,1,1-trifluoropropan-2-yl)oxy)benzamide], at TTK, the concentration for half-maximal inhibition (IC50) was less than 50 nM. Moreover, the GI50 in the assay with MDA-MB-231 cells is less than 100 nM.

For the compound `COc1cc(-c2cnn(C)c2)ccc1Nc1nc(NC2CCCC2)c2c(C#N)c[nH]c2n1` [Example 43, 4-(cyclopentylamino)-2-((2-methoxy-4-(1-methyl-1H-pyrazol-4-yl)phenyl)amino)-7H-pyrrolo[2,3-d] pyrimidine-5-carbonitrile], at TTK, the half-maximal inhibitory concentration (IC50) was less than 50 nM. For the same compound, in the assay on MDA-MB-231 cells, the GI50 was less than 100 nM.

Compound `COc1cc(N2CCCC2=O)ccc1Nc1nc(NCC(C)C)c2c(C#N)c[nH]c2n1` [Example 66, 4-(isobutylamino)-2-((2-methoxy-4-(2-oxopyrrolidin-1-yl)phenyl)amino)-7H-pyrrolo[2,3-d] pyrimidine-5-carbonitrile] registered an IC50 on TTK of less than 50 nM. The 50% growth inhibitory concentration (GI50) with MDA-MB-231 cells was less than 100 nM.

`COc1cc(-c2ccn(C)n2)ccc1Nc1nc(NC2CCCC2)c2c(C#N)c[nH]c2n1` [Example 2, 4-(cyclopentylamino)-2-((2-methoxy-4-(1-methyl-1H-pyrazol-3-yl)phenyl)amino)-7H-pyrrolo[2,3-d] pyrimidine-5-carbonitrile]: the half-maximal inhibitory concentration (IC50) against TTK is less than 50 nM. Besides, the GI50 in the assay on MDA-MB-231 cells is less than 100 nM.

On to `COc1cc(-c2cn(C)nn2)ccc1Nc1nc(NC2CCCCC2)c2c(C#N)c[nH]c2n1` [Example 25, 4-(cyclohexylamino)-2-((2-methoxy-4-(1-methyl-1H-1,2,3-triazol-4-yl)phenyl)amino)-7H-pyrrolo[2,3-d] pyrimidine-5-carbonitrile], for which the IC50 at TTK is 200 to 1000 nM. Also, the 50% growth inhibitory concentration (GI50) in the assay with MDA-MB-231 cells was less than 100 nM.

On TTK, `COc1cc(N2CCCC2=O)ccc1Nc1nc(NC2COC2)c2c(C#N)c[nH]c2n1` [Example 73, 2-((2-methoxy-4-(2-oxopyrrolidin-1-yl)phenyl)amino)-4-(oxetan-3-ylamino)-7H-pyrrolo[2,3-d] pyrimidine-5-carbonitrile] returned a concentration for half-maximal inhibition (IC50) of less than 50 nM. In the assay with MDA-MB-231 cells, the GI50 is less than 100 nM.

In turn, `COCC(C)(C)Nc1nc(Nc2ccc(N3CCCC3=O)cc2OC)nc2[nH]cc(C#N)c12` [Example 72, 4-((1-methoxy-2-methylpropan-2-yl)amino)-2-((2-methoxy-4-(2-oxopyrrolidin-1-yl)phenyl)amino)-7H-pyrrolo[2,3-d] pyrimidine-5-carbonitrile] came in with an IC50 at TTK of less than 50 nM. Also, the GI50 with MDA-MB-231 cells is 100 to 1000 nM.

Turning to `COc1cc(N2CCCC2=O)ccc1Nc1nc(NC2CCC2)c2c(C#N)c[nH]c2n1` [Example 69, 4-(cyclobutylamino)-2-((2-methoxy-4-(2-oxopyrrolidin-1-yl)phenyl)amino)-7H-pyrrolo[2,3-d] pyrimidine-5-carbonitrile], the IC50 on TTK is less than 50 nM. Further, in the assay on MDA-MB-231 cells, the GI50 was more than 1000 nM.

Regarding `Cn1nccc1-c1ccc(Nc2nc(NC3CCCC3)c3c(C#N)c[nH]c3n2)c2c1CCO2` [Example 33, 4-(cyclopentylamino)-2-((4-(1-methyl-1H-pyrazol-5-yl)-2,3-dihydrobenzofuran-7-yl)amino)-7H-pyrrolo[2,3-d] pyrimidine-5-carbonitrile], at TTK, the IC50 was in the range of 50 to 200 nM. Besides, the GI50 with MDA-MB-231 cells is less than 100 nM.

On to `COc1cc(-c2cncn2C)ccc1Nc1nc(NC2CCCC2)c2c(C#N)c[nH]c2n1` [Example 30, 4-(cyclopentylamino)-2-((2-methoxy-4-(1-methyl-1H-imidazol-5-yl)phenyl)amino)-7H-pyrrolo[2,3-d] pyrimidine-5-carbonitrile], for which, on TTK, the IC50 is less than 50 nM. In addition, the GI50 with MDA-MB-231 cells is less than 100 nM.

Compound `CNc1nc(Nc2ccc(-c3ccnn3C)cc2OC)nc2[nH]cc(C#N)c12` [Example 9, 2-((2-methoxy-4-(1-methyl-1H-pyrazol-5-yl)phenyl)amino)-4-(methylamino)-1H-pyrrolo[2,3-d] pyrimidine-5-carbonitrile] gave an IC50 against TTK of less than 50 nM. In addition, in the assay with MDA-MB-231 cells, the GI50 was more than 1000 nM.

`COc1cc(N2CCCC2=O)ccc1Nc1nc(NC(C)C)c2c(C#N)c[nH]c2n1` [Example 65, 4-(isopropylamino)-2-((2-methoxy-4-(2-oxopyrrolidin-1-yl)phenyl)amino)-7H-pyrrolo[2,3-d] pyrimidine-5-carbonitrile] had an IC50 against TTK of less than 50 nM. In addition, the GI50 with MDA-MB-231 cells was less than 100 nM.
